Activity calls are given as the source filed them. The rule behind the calls is not given here.
Columns and labels:
[1] = Toxicity in KM mouse assessed as histopathological abnormality in lung upto 40 mg/kg, ip measured for 24 hrs by H and E staining based analysis; type: organism-based; details: in vivo
Staphylococcus aureus [2] = test: Antibacterial activity against Staphylococcus aureus ATCC25923 upto 32 ug/ml incubated for 16 to 18 hrs in presence of phosphatidylethanolamine; type: functional, organism-based; details: dose <= 32.0 µg/ml, time 16-18 hrs
Staphylococcus aureus [3] = test: Bactericidal activity against Staphylococcus aureus ATCC29213 assessed as log reduction in bacterial growth at 8 times MIC incubated for 24 hrs by time-kill assay; type: functional
Staphylococcus aureus [4] = test: Antibacterial activity against Staphylococcus aureus ATCC29213 infected in mouse model assessed as bacterial concentration at 10 mg/kg, sc measured after 24 hrs (reference value: 10^10.13 CFU/g); type: functional
Escherichia coli [5] = test: Bactericidal activity against Escherichia coli ATCC25922 at MIC incubated for 12 hrs by time-kill assay relative to control; type: functional
[6] = Toxicity in KM mouse assessed as damage in lung upto 40 mg/kg, ip measured for 24 hrs by H and E staining based analysis; type: organism-based; details: in vivo
Staphylococcus aureus [7] = test: Antibacterial activity against Staphylococcus aureus ATCC29213 infected in mouse model assessed as normalization of skin cell morphology at 5 to 10 mg/kg, sc measured after 24 hrs by H and E staining based analysis; type: functional, organism-based; details: dose 5-10 mg/kg
Staphylococcus aureus [8] = test: Antibacterial activity against Staphylococcus aureus ATCC25923 upto 32 ug/ml incubated for 16 to 18 hrs in presence of peptidoglycan; type: functional, organism-based; details: dose <= 32.0 µg/ml, time 16-18 hrs
Staphylococcus aureus [9] = test: Antibacterial activity against Staphylococcus aureus ATCC29213 infected in mouse model assessed as bacterial concentration at 5 mg/kg, sc measured after 24 hrs (reference value: 10^10.13 CFU/g); type: functional
[10] = Cytotoxicity against HUVEC cells assessed as cell viability at 32 ug/ml incubated for 24 hrs by CCK8 assay relative to control; type: toxicity, cell-based; details: human, at 32 µg/mL, read-out: Activity
Staphylococcus aureus [11] = test: Antibacterial activity against Staphylococcus aureus ATCC29213 assessed as cell surface wrinkling at 8 times MIC by SEM analysis; type: functional, organism-based
[12] = Toxicity in KM mouse assessed as damage in kidney upto 40 mg/kg, ip measured for 24 hrs by H and E staining based analysis; type: organism-based; details: in vivo
Staphylococcus aureus [13] = test: Antibacterial activity against Staphylococcus aureus ATCC29213 infected in mouse model assessed as bacterial load reduction in abscesses at 10 mg/kg, sc measured after 24 hrs relative to control; type: functional; design: scale not given: the % may be the effect or the level left
[14] = Toxicity in KM mouse assessed as damage in liver upto 40 mg/kg, ip measured for 24 hrs by H and E staining based analysis; type: organism-based; details: in vivo
Enterococcus faecalis [15] = test: Antibacterial activity against Enterococcus faecalis ATCC29212 assessed as cell surface wrinkling at 8 times MIC by SEM analysis; type: functional, organism-based
Staphylococcus aureus [16] = test: Antibacterial activity against Staphylococcus aureus ATCC29213 infected in mouse model assessed as bacterial load reduction in abscesses at 5 mg/kg, sc measured after 24 hrs relative to control; type: functional; design: scale not given: the % may be the effect or the level left
[17] = Toxicity in KM mouse assessed as damage in spleen upto 40 mg/kg, ip measured for 24 hrs by H and E staining based analysis; type: organism-based; details: in vivo
[18] = Selectivity index, ratio of HC50 against rabbit RBC for to MIC for Escherichia coli ATCC25922; type: toxicity; details: rabbit red blood cells, pooled result: one value given for 6 cell lines, strains, targets or settings, read-out: Selectivity Index
[19] = Toxicity in KM mouse assessed as animal survival upto 40 mg/kg, ip measured for 24 hrs; type: organism-based; details: in vivo
Escherichia coli [20] = test: Bactericidal activity against Escherichia coli ATCC25922 at MIC incubated for 24 hrs by time-kill assay relative to control; type: functional
Escherichia coli [21] = test: Bactericidal activity against Escherichia coli ATCC25922 at 8 times MIC incubated for 12 hrs by time-kill assay relative to control; type: functional
Enterococcus faecalis [22] = test: Antibacterial activity against Enterococcus faecalis ATCC29212 assessed as cell surface disruption at 8 times MIC by SEM analysis; type: functional, organism-based
Escherichia coli [23] = test: Antibacterial activity against Escherichia coli ATCC25922 in plasma pretreated plasma with compound for 6 hrs followed by bacterial infection into plasma; type: functional, organism-based
[24] = Toxicity in KM mouse assessed as histopathological abnormality in liver upto 40 mg/kg, ip measured for 24 hrs by H and E staining based analysis; type: organism-based; details: in vivo
[25] = Hemolytic activity against rabbit RBC incubated for 1 hr by absorbance based assay; type: toxicity, cell-based, Oryctolagus cuniculus, Erythrocyte; details: rabbit red blood cells (erythrocytes)
Staphylococcus aureus [26] = test: Antibacterial activity against Staphylococcus aureus ATCC29213 assessed as cell membrane damage incubated for 8 mins by SYTOX Green uptake assay; type: functional, organism-based
Staphylococcus aureus [27] = test: Antibacterial activity against Staphylococcus aureus ATCC25923 upto 32 ug/ml incubated for 16 to 18 hrs in presence of cardiolipin; type: functional, organism-based; details: dose <= 32.0 µg/ml, time 16-18 hrs
Staphylococcus aureus [28] = test: Antibacterial activity against Staphylococcus aureus ATCC29213 infected in mouse model assessed as reduction in abscesses size at 5 to 10 mg/kg, sc measured after 24 hrs; type: functional, organism-based; details: dose 5-10 mg/kg
Staphylococcus aureus [29] = test: Antibacterial activity against Staphylococcus aureus ATCC29213 assessed as cell surface disruption at 8 times MIC by SEM analysis; type: functional, organism-based
Pseudomonas aeruginosa = test: Antibacterial activity against Pseudomonas aeruginosa ATCC27853 by CLSI based serial dilution method; type: functional
Enterococcus faecalis [30] = test: Antibacterial activity against Enterococcus faecalis ATCC29212 by CLSI based serial dilution method; type: functional
Staphylococcus aureus [31] = test: Inhibition of antibiotic-resistance in Staphylococcus aureus ATCC29213 at 0.5 times of MIC incubated for 20 days; type: functional; details: time 20.0 day
Staphylococcus aureus [32] = test: Antibacterial activity against Staphylococcus aureus ATCC29213 by CLSI based serial dilution method; type: functional
Staphylococcus aureus [33] = test: Bactericidal activity against Staphylococcus aureus ATCC29213 at 8 times MIC incubated for 24 hrs by time-kill assay relative to control; type: functional
Escherichia coli [34] = test: Bactericidal activity against Escherichia coli ATCC25922 incubated upto 24 hrs by time-kill assay; type: functional, organism-based
Escherichia coli [35] = test: Bactericidal activity against Escherichia coli ATCC25922 assessed as log reduction in bacterial growth at MIC incubated for 12 hrs by time-kill assay; type: functional
Enterococcus = test: Antibacterial activity against vancomycin-resistant Enterococcus ATCC51299 by CLSI based serial dilution method; type: functional
[36] = Selectivity ratio of cytotoxicity against HUVEC cells for to MIC for Staphylococcus aureus ATCC29213; type: toxicity, cell-based; details: human
Staphylococcus aureus [37] = test: Antibacterial activity against Staphylococcus aureus ATCC29213 infected in mouse model assessed as uniform smooth skin at 5 to 10 mg/kg, sc measured after 24 hrs; type: functional, organism-based; details: dose 5-10 mg/kg
Escherichia coli [38] = test: Antibacterial activity against Escherichia coli ATCC25922 by CLSI based serial dilution method; type: functional
Enterococcus faecalis [39] = test: Antibacterial activity against Enterococcus faecalis ATCC29212 assessed as leakage of cell contents at 8 times MIC by SEM analysis; type: functional, organism-based
[40] = Toxicity in KM mouse assessed as histopathological abnormality in kidney upto 40 mg/kg, ip measured for 24 hrs by H and E staining based analysis; type: organism-based; details: in vivo
Escherichia coli [41] = test: Antibacterial activity against Escherichia coli ATCC25922 assessed as cell membrane damage incubated for 8 mins by SYTOX Green uptake assay; type: functional, organism-based

CCCCCCCNC(=O)C[N+](C)(C)CCCCOc1cc(C)ccc1C(C)C.[Br-]
Activity [1]: Non-Toxic | Activity (Staphylococcus aureus [2]): inactive | Activity (Staphylococcus aureus [3]): >3 log10CFU/ml | Activity (Staphylococcus aureus [4]): ~1 10^7.67CFU/g | Activity (Escherichia coli [5]): 99.99% | Activity [6]: Non-Toxic | Activity (Staphylococcus aureus [7]): Active | Activity (Staphylococcus aureus [8]): Active | Activity (Staphylococcus aureus [9]): ~1 10^7.99CFU/g | viability at 24 h, 32 ug/ml [10]: 68.7% | Activity (Staphylococcus aureus [11]): Active | Activity [12]: Non-Toxic | Activity (Staphylococcus aureus [13]): 99.65% | Activity [14]: Non-Toxic | Activity (Enterococcus faecalis [15]): Active | Activity (Staphylococcus aureus [16]): 99.27% | Activity [17]: Non-Toxic | selectivity ratio [18]: 59 | Activity [19]: Non-Toxic | Activity (Escherichia coli [20]): 100% | Activity (Escherichia coli [21]): 100% | Activity (Enterococcus faecalis [22]): Active | Activity (Escherichia coli [23]): Active | Activity [24]: Non-Toxic | HC50 at 1 h [25]: 472 µg/mL | Activity (Staphylococcus aureus [26]): Dose-Dependent Effect | Activity (Staphylococcus aureus [27]): inactive | Activity (Staphylococcus aureus [28]): Active | Activity (Staphylococcus aureus [29]): Active | MIC (Pseudomonas aeruginosa): 8 µg/mL | MIC (Enterococcus faecalis [30]): 1 µg/mL | inhibition (Staphylococcus aureus [31]): Active | MIC (Staphylococcus aureus [32]): 0.5 µg/mL | Activity (Staphylococcus aureus [33]): >99.9% | Activity (Escherichia coli [34]): Dose-Dependent Effect | Activity (Escherichia coli [35]): >4 log10CFU/ml | MIC (Enterococcus): 2 µg/mL | selectivity ratio [36]: 64 | Activity (Staphylococcus aureus [37]): Active | MIC (Escherichia coli [38]): 2 µg/mL | Activity (Enterococcus faecalis [39]): Active | Activity [40]: Non-Toxic | Activity (Escherichia coli [41]): Dose-Dependent Effect
